# Assay results reported in patent US6737383B1, “Herbicidal oxadiazolidines” (priority 1999, dated 2004).
# What was measured:
# smallflower flatsedge = test: Test B flood test smallflower flatsedge; assay type: in vivo, Cyperus difformis
# How it was run: (§1)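 Read-out is a visual response score from 0 (no effect) to 10 (complete control), assigned by comparison with untreated controls. Treatment was applied at the 2-leaf stage, and plants stayed in the greenhouse for twelve to sixteen days before scoring.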
# cocklebur = test: Test B pre/postemergence cocklebur; assay type: in vivo, Xanthium strumarium
# How it was run: (§2)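 Test chemicals in a non-phytotoxic solvent mixture with surfactant were sprayed preemergence onto planted seeds and postemergence onto plants 2 to 18 cm tall (1- to 4-leaf stage). After twelve to sixteen days in a greenhouse, injury was visually rated against untreated controls from 0 (no effect) to 10 (complete control).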
# rape = test: Test B pre/postemergence rape; assay type: in vivo, Brassica napus
# How it was run: as §2
# duck salad = test: Test B flood test duck salad; assay type: in vivo, Heteranthera limosa
# How it was run: as §1
# crabgrass = test: Test B pre/postemergence crabgrass; assay type: in vivo, Digitaria sanguinalis
# How it was run: as §2
# corn = test: Test B pre/postemergence corn; assay type: in vivo, Zea mays
# How it was run: as §2
# rice = test: Test B flood test rice; assay type: in vivo, Oryza sativa
# How it was run: as §1
# sugar beet = test: Test B pre/postemergence sugar beet; assay type: in vivo, Beta vulgaris
# How it was run: as §2
# surinam grass = test: Test B pre/postemergence surinam grass; assay type: in vivo, Brachiaria decumbens
# How it was run: as §2
# purple nutsedge = test: Test B pre/postemergence purple nutsedge; assay type: in vivo, Cyperus rotundus
# How it was run: as §2
# bamyardgrass = test: Test B flood test barnyardgrass; assay type: in vivo, Echinochloa crus-galli
# How it was run: as §1
# giant foxtail = test: Test B pre/postemergence giant foxtail; assay type: in vivo, Setaria faberii
# How it was run: as §2
# soybean = test: Test B pre/postemergence soybean; assay type: in vivo, Glycine max
# How it was run: as §2
# blackgrass = test: Test B pre/postemergence blackgrass; assay type: in vivo, Alopecurus myosuroides
# How it was run: as §2
# wheat = test: Test B pre/postemergence wheat; assay type: in vivo, Triticum aestivum
# How it was run: as §2
# velvetleaf = test: Test B pre/postemergence velvetleaf; assay type: in vivo, Abutilon theophrasti
# How it was run: as §2
# bedstraw = test: Test B pre/postemergence bedstraw; assay type: in vivo, Galium aparine
# How it was run: as §2
# [1] = Pre-emergence, Rate 1000 g/ha, scale 0 to 10 (0 no effect, 10 complete control)
# [2] = Rate 125 g/ha, under heading Pre-emergence, flood test species, visual evaluation after twelve to sixteen days
# [3] = Rate 250 g/ha, Pre-emergence (flood test species), scale 0 to 10, 0 is no effect, 10 is complete control
# [4] = Rate 500 g/ha, Pre-emergence section of Table B, 0 to 10 scale (0 no effect, 10 complete control)
# [5] = Postemergence, Rate 125 g/ha, scale of 0 to 10 where 0 is no effect and 10 is complete control
# [6] = Postemergence, Rate 250 g/ha, scale of 0 to 10, 0 is no effect, 10 is complete control
# [7] = Postemergence, Rate 500 g/ha, scale of 0 to 10 where 0 is no effect and 10 is complete control
# [8] = Postemergence, Rate 1000 g/ha, scale 0 to 10 (0 no effect, 10 complete control)
# [9] = Preemergence, Rate 125 g/ha, scale of 0 to 10 where 0 is no effect and 10 is complete control
# [10] = Preemergence, Rate 250 g/ha, scale 0 to 10 (0 no effect, 10 complete control)
# [11] = Preemergence, Rate 500 g/ha, scale of 0 to 10 where 0 is no effect and 10 is complete control
# [12] = Rate 1000 g/ha, Preemergence, scale 0 to 10 (0 no effect, 10 complete control)
smiles,measurement,setting,value
COC(=O)C(C)n1c(=O)on(C(=O)N(c2ccc(F)cc2)C(C)C)c1=O (stereo not drawn) [Compound 616],S. Flatsedge plant response rating,smallflower flatsedge; [1],0
same,"S. Flatsedge plant response rating (0 to 10 scale, 0 is no effect, 10 is complete control)",smallflower flatsedge; [2],0
same,S. Flatsedge plant response rating,smallflower flatsedge; [3],0
same,S. Flatsedge plant response rating,smallflower flatsedge; [4],0
same,"Plant response rating, Cocklebur",cocklebur; [5],0
same,Cocklebur plant response rating,cocklebur; [6],0
same,"Plant response rating, Cocklebur",cocklebur; [7],0
same,Cocklebur plant response rating,cocklebur; [8],3
same,Cocklebur plant response rating,cocklebur; [9],0
same,"Plant response rating, Cocklebur",cocklebur; [10],0
same,"Plant response rating, Cocklebur",cocklebur; [11],0
same,"Plant response rating, Cocklebur",cocklebur; [12],0
same,"Plant response rating, Rape",rape; [5],0
same,Rape plant response rating,rape; [6],0
same,"Plant response rating, Rape",rape; [7],0
same,Rape plant response rating,rape; [8],3
same,Rape plant response rating,rape; [9],0
same,"Plant response rating, Rape",rape; [10],0
same,"Plant response rating, Rape",rape; [11],3
same,"Plant response rating, Rape",rape; [12],6
same,Ducksalad plant response rating,duck salad; [1],0
same,"Ducksalad plant response rating (0 to 10 scale, 0 is no effect, 10 is complete control)",duck salad; [2],0
same,Ducksalad plant response rating,duck salad; [3],0
same,Ducksalad plant response rating,duck salad; [4],0
same,"Plant response rating, Crabgrass",crabgrass; [5],2
same,Crabgrass plant response rating,crabgrass; [6],4
same,"Plant response rating, Crabgrass",crabgrass; [7],7
same,Crabgrass plant response rating,crabgrass; [8],8
same,Crabgrass plant response rating,crabgrass; [9],0
same,"Plant response rating, Crabgrass",crabgrass; [10],0
same,"Plant response rating, Crabgrass",crabgrass; [11],1
same,"Plant response rating, Crabgrass",crabgrass; [12],6
same,"Plant response rating, Corn",corn; [5],0
same,Corn plant response rating,corn; [6],0
same,"Plant response rating, Corn",corn; [7],0
same,Corn plant response rating,corn; [8],0
same,Corn plant response rating,corn; [9],0
same,"Plant response rating, Corn",corn; [10],0
same,"Plant response rating, Corn",corn; [11],0
same,"Plant response rating, Corn",corn; [12],2
same,Rice plant response rating,rice; [1],0
same,"Rice plant response rating (0 to 10 scale, 0 is no effect, 10 is complete control)",rice; [2],0
same,Rice plant response rating,rice; [3],0
same,Rice plant response rating,rice; [4],0
same,"Plant response rating, Sugarbeets",sugar beet; [5],0
same,Sugarbeets plant response rating,sugar beet; [6],0
same,"Plant response rating, Sugarbeets",sugar beet; [7],2
same,Sugarbeets plant response rating,sugar beet; [8],2
same,Sugarbeets plant response rating,sugar beet; [9],0
same,"Plant response rating, Sugarbeets",sugar beet; [10],0
same,"Plant response rating, Sugarbeets",sugar beet; [11],1
same,"Plant response rating, Sugarbeets",sugar beet; [12],7
same,"Plant response rating, B. signalgrass",surinam grass; [5],0
same,B. signalgrass plant response rating,surinam grass; [6],1
same,"Plant response rating, B. signalgrass",surinam grass; [7],4
same,B. signalgrass plant response rating,surinam grass; [8],5
same,B. signalgrass plant response rating,surinam grass; [9],0
same,"Plant response rating, B. signalgrass",surinam grass; [10],0
same,B. signalgrass plant response rating,surinam grass; [11],1
same,"Plant response rating, B. signalgrass",surinam grass; [12],6
same,"Plant response rating, Nutsedge",purple nutsedge; [5],0
same,Nutsedge plant response rating,purple nutsedge; [6],0
same,"Plant response rating, Nutsedge",purple nutsedge; [7],0
same,"Plant response rating, Nutsedge",purple nutsedge; [10],0
same,"Plant response rating, Nutsedge",purple nutsedge; [11],0
same,"Plant response rating, Nutsedge",purple nutsedge; [12],0
same,Barnyardgrass plant response rating,bamyardgrass; [1],0
same,"Barnyardgrass plant response rating (0 to 10 scale, 0 is no effect, 10 is complete control)",bamyardgrass; [2],0
same,Barnyardgrass plant response rating,bamyardgrass; [3],0
same,Barnyardgrass plant response rating,bamyardgrass; [4],0
same,"Plant response rating, Giant foxtail",giant foxtail; [5],3
same,Giant foxtail plant response rating,giant foxtail; [6],3
same,"Plant response rating, Giant foxtail",giant foxtail; [7],6
same,Giant foxtail plant response rating,giant foxtail; [8],7
same,Giant foxtail plant response rating,giant foxtail; [9],1
same,"Plant response rating, Giant foxtail",giant foxtail; [10],7
same,"Plant response rating, Giant foxtail",giant foxtail; [11],5
same,"Plant response rating, Giant foxtail",giant foxtail; [12],9
same,Soybean plant response rating,soybean; [6],4
same,"Plant response rating, Soybean",soybean; [7],4
same,Soybean plant response rating,soybean; [8],4
same,Soybean plant response rating,soybean; [9],0
same,"Plant response rating, Soybean",soybean; [10],0
same,"Plant response rating, Soybean",soybean; [11],0
same,"Plant response rating, Soybean",soybean; [12],5
same,"Plant response rating, Blackgrass",blackgrass; [5],0
same,Blackgrass plant response rating,blackgrass; [6],0
same,"Plant response rating, Blackgrass",blackgrass; [7],5
same,Blackgrass plant response rating,blackgrass; [9],0
same,"Plant response rating, Blackgrass",blackgrass; [10],4
same,Blackgrass plant response rating,blackgrass; [11],6
same,"Plant response rating, Blackgrass",blackgrass; [12],8
same,"Plant response rating, Wheat",wheat; [5],0
same,Wheat plant response rating,wheat; [6],0
same,"Plant response rating, Wheat",wheat; [7],0
same,Wheat plant response rating,wheat; [8],0
same,Wheat plant response rating,wheat; [9],0
same,"Plant response rating, Wheat",wheat; [10],0
same,"Plant response rating, Wheat",wheat; [11],0
same,"Plant response rating, Wheat",wheat; [12],0
same,"Plant response rating, Velvetleaf",velvetleaf; [5],0
same,Velvetleaf plant response rating,velvetleaf; [6],0
same,"Plant response rating, Velvetleaf",velvetleaf; [7],1
same,Velvetleaf plant response rating,velvetleaf; [8],1
same,Velvetleaf plant response rating,velvetleaf; [9],0
same,"Plant response rating, Velvetleaf",velvetleaf; [10],0
same,"Plant response rating, Velvetleaf",velvetleaf; [11],4
same,"Plant response rating, Velvetleaf",velvetleaf; [12],5
same,"Plant response rating, Bedstraw",bedstraw; [5],0
same,Bedstraw plant response rating,bedstraw; [6],0
same,Bedstraw plant response rating,bedstraw; [9],0
same,"Plant response rating, Bedstraw",bedstraw; [10],0
same,Bedstraw plant response rating,bedstraw; [11],0
same,"Plant response rating, Bedstraw",bedstraw; [12],4
